Measurements as given in patent publication US20250066346A1, “SOLID FORMS OF A BENZTHIAZOLE-PIPERAZINYL-OXAZOLE COMPOUND AND METHODS OF USE THEREOF” (Hepagene Therapeutics (HK) Limited, priority 2022, published 2025).
Where a name gives a salt, the structure may show the parent alone.

Tests used:
Type in all cases: physicochemical
[1] = Form conversion by variable-temperature XRPD (VT-XRPD)
Experimental: […] 22.
Based on data above, it would convert to dehydrate state (HCl salt Form C) at low humidity and back to hydrate at high humidity.
HBr salt Form E was observed after N2 purging HBr salt Form D for 20 min at 30° C. via variable-temperature XRPD (VT-XRPD) shown in FIG. 23.
Based on data above, it would convert to dehydrate state (HBr salt Form E) at low humidity and back to hydrate at high humidity.

[2] = Hygroscopicity by dynamic vapor sorption (DVS) at 25° C.
Experimental: DVS was measured via a SMS (Surface Measurement Systems) DVS Intrinsic. The relative humidity at 25° C. was calibrated against deliquescence point of LiCl, Mg(NO3)2 and KCl.

[3] = Kinetic solubility in water and bio-relevant media (SGF, FaSSIF, FeSSIF) at 37° C.; parameters: key to FC: form change: Yes: form changed; No: form not changed; conditions: for pH: filtered supernatant
Experimental: Agilent 1260 HPLC was utilized and detailed chromatographic conditions are provided in Tables 3 and 4 for purity and solubility test, respectively.
About 20 mg of free base (form A) HCl salt (form B), and HBr salt (form D) were added to a 5-mL glass vials followed by the addition of 4 mL of the corresponding medium/solvent into each glass vial to form a suspension. The vials were capped and rolled at 37° C. (25 rpm). Samples were removed (1 mL) at 1 h, 4 h, and 24 h and centrifuged (14000 rpm, 2 min, room temperature). The supernatant was filtered through 0.22 μm syringe filter (first few drops of filtrate were discarded) for HPLC solubility and pH tests (Table 15). The residual solids were analyzed by XRPD.

[4] = Solid state stability (XRPD for physical stability, HPLC purity for chemical stability); conditions: for Purity/initial purity: HPLC; for Form change: XRPD
Description: All the samples were characterized by XRPD for physical stability and HPLC purity for chemical stability evaluation (Table 16).

Compound: COc1cc(C(=O)O)cc2sc(N3CCN(Cc4c(-c5c(Cl)cccc5Cl)noc4C4CC4)C[C@H]3C)nc12 [Form E, (R)-2-(4-((5-cyclopropyl-3-(2,6-dichlorophenyl)isoxazol-4-yl)methyl)-2-methylpiperazin-1-yl)-4-methoxybenzo[d]thiazole-6-carboxylic acid]
- form after exposing to ambient conditions ([1]; ambient conditions for about 10 min): HBr salt Form D was re-obtained
- form change after heating to 120° C. and cooling to 30° C. ([1]; with N2 protection, VT-XRPD): no form change occurred

Compound: COc1cc(C(=O)O)cc2sc(N3CCN(Cc4c(-c5c(Cl)cccc5Cl)noc4C4CC4)C[C@H]3C)nc12 [HBr salt Form D, (R)-2-(4-((5-cyclopropyl-3-(2,6-dichlorophenyl)isoxazol-4-yl)methyl)-2-methylpiperazin-1-yl)-4-methoxybenzo[d]thiazole-6-carboxylic acid]
- water uptake ([2]; in the range of 0% RH to 20% RH, platform between 20% RH and 80% RH): 2.6%
- solubility in FaSSIF and FeSSIF (in words) [3]: significant solubility improvement
- FC: form change ([3]; FaSSIF, 1 hr): No
- S: solubility ([3]; FaSSIF, 1 hr): 320 µg/mL
- pH ([3]; FaSSIF, 1 hr): 6.3
- FC: form change ([3]; FaSSIF, 4 hrs): No
- S: solubility ([3]; FaSSIF, 4 hrs): 460 µg/mL
- pH ([3]; FaSSIF, 4 hrs): 6.3
- FC: form change ([3]; FaSSIF, 24 hrs): No
- S: solubility ([3]; FaSSIF, 24 hrs): 640 µg/mL
- pH ([3]; FaSSIF, 24 hrs): 6.3
- FC: form change ([3]; FeSSIF, 1 hr): No
- S: solubility ([3]; FeSSIF, 1 hr): 660 µg/mL
- pH ([3]; FeSSIF, 1 hr): 5.1
- FC: form change ([3]; FeSSIF, 4 hrs): No
- S: solubility ([3]; FeSSIF, 4 hrs): 710 µg/mL
- pH ([3]; FeSSIF, 4 hrs): 5.1
- FC: form change ([3]; FeSSIF, 24 hrs): No
- S: solubility ([3]; FeSSIF, 24 hrs): 780 µg/mL
- pH ([3]; FeSSIF, 24 hrs): 5.0
- FC: form change ([3]; H2O, 1 hr): No
- S: solubility ([3]; H2O, 1 hr): 0.6 µg/mL
- pH ([3]; H2O, 1 hr): 3.0
- FC: form change ([3]; H2O, 4 hrs): No
- S: solubility ([3]; H2O, 4 hrs): 0.7 µg/mL
- pH ([3]; H2O, 4 hrs): 3.0
- FC: form change ([3]; H2O, 24 hrs): No
- S: solubility ([3]; H2O, 24 hrs): 0.6 µg/mL
- pH ([3]; H2O, 24 hrs): 3.0
- FC: form change ([3]; SGF, 1 hr): No
- S: solubility ([3]; SGF, 1 hr): 31 µg/mL
- pH ([3]; SGF, 1 hr): 1.9
- FC: form change ([3]; SGF, 4 hrs): No
- S: solubility ([3]; SGF, 4 hrs): 30 µg/mL
- pH ([3]; SGF, 4 hrs): 1.9
- FC: form change ([3]; SGF, 24 hrs): Yes
- S: solubility ([3]; SGF, 24 hrs): 43 µg/mL
- pH ([3]; SGF, 24 hrs): 1.7
- solubility in SGF, FaSSIF, and FeSSIF compared with free base (form A) and HCl salt (form B) ([3]; SGF, FaSSIF, FeSSIF): improved solubility
- solubility in water, ranking among form A, form B, form D ([3]; water): lowest solubility
- Purity/initial purity ([4]; 25° C./60% RH/1 week): 99.9%
- Form change ([4]; 25° C./60% RH/1 week): No
- Purity/initial purity ([4]; 40° C./75% RH/1 week): 99.9%
- Form change ([4]; 40° C./75% RH/1 week): No
- HPLC purity after storage (in words) ([4]; 80° C. for 1 day): decreased
- Purity/initial purity ([4]; 80° C./1 day): 99.5%
- Form change ([4]; 80° C./1 day): No
- form change (in words) ([4]; all test conditions): no form change was observed

Compound: COc1cc(C(=O)O)cc2sc(N3CCN(Cc4c(-c5c(Cl)cccc5Cl)noc4C4CC4)C[C@H]3C)nc12 [HCl salt Form B, (R)-2-(4-((5-cyclopropyl-3-(2,6-dichlorophenyl)isoxazol-4-yl)methyl)-2-methylpiperazin-1-yl)-4-methoxybenzo[d]thiazole-6-carboxylic acid]
- water uptake ([2]; in the range of 0% RH to 30% RH, platform between 30% RH and 95% RH): 2.5%
- solubility in FaSSIF and FeSSIF (in words) [3]: significant solubility improvement
- FC: form change ([3]; FaSSIF, 1 hr): No
- S: solubility ([3]; FaSSIF, 1 hr): 290 µg/mL
- pH ([3]; FaSSIF, 1 hr): 6.5
- FC: form change ([3]; FaSSIF, 4 hrs): No
- S: solubility ([3]; FaSSIF, 4 hrs): 420 µg/mL
- pH ([3]; FaSSIF, 4 hrs): 6.5
- FC: form change ([3]; FaSSIF, 24 hrs): No
- S: solubility ([3]; FaSSIF, 24 hrs): 570 µg/mL
- pH ([3]; FaSSIF, 24 hrs): 6.4
- FC: form change ([3]; FeSSIF, 1 hr): No
- S: solubility ([3]; FeSSIF, 1 hr): 480 µg/mL
- pH ([3]; FeSSIF, 1 hr): 5.1
- FC: form change ([3]; FeSSIF, 4 hrs): No
- S: solubility ([3]; FeSSIF, 4 hrs): 480 µg/mL
- pH ([3]; FeSSIF, 4 hrs): 5.0
- FC: form change ([3]; FeSSIF, 24 hrs): No
- S: solubility ([3]; FeSSIF, 24 hrs): 500 µg/mL
- pH ([3]; FeSSIF, 24 hrs): 5.0
- FC: form change ([3]; H2O, 1 hr): No
- S: solubility ([3]; H2O, 1 hr): 4.9 µg/mL
- pH ([3]; H2O, 1 hr): 6.1
- FC: form change ([3]; H2O, 4 hrs): No
- S: solubility ([3]; H2O, 4 hrs): 5.6 µg/mL
- pH ([3]; H2O, 4 hrs): 5.9
- FC: form change ([3]; H2O, 24 hrs): No
- S: solubility ([3]; H2O, 24 hrs): 6.1 µg/mL
- pH ([3]; H2O, 24 hrs): 6.4
- FC: form change ([3]; SGF, 1 hr): No
- S: solubility ([3]; SGF, 1 hr): 61 µg/mL
- pH ([3]; SGF, 1 hr): 1.8
- FC: form change ([3]; SGF, 4 hrs): No
- S: solubility ([3]; SGF, 4 hrs): 48 µg/mL
- pH ([3]; SGF, 4 hrs): 1.9
- FC: form change ([3]; SGF, 24 hrs): Yes
- S: solubility ([3]; SGF, 24 hrs): 39 µg/mL
- pH ([3]; SGF, 24 hrs): 1.8
- Purity/initial purity ([4]; 25° C./60% RH/1 week): 100.0%
- Form change ([4]; 25° C./60% RH/1 week): No
- Purity/initial purity ([4]; 40° C./75% RH/1 week): 100.0%
- Form change ([4]; 40° C./75% RH/1 week): No
- solid state stability (overall, in words) ([4]; 80° C./1 day, 25° C./60% RH/1 week, 40° C./75% RH/1 week): good solid state stability
- Purity/initial purity ([4]; 80° C./1 day): 100.0%
- Form change ([4]; 80° C./1 day): No
